Laboratory results taken from US20140274981A1, “PHARMACEUTICAL COMPOSITION OF S-KETAMINE HYDROCHLORIDE” (JANSSEN PHARMACEUTICA NV, priority 2013, published 2014).

Columns and labels:
[1] = system: E. coli; experiment: Full AET challenge test; details: original spike 10^5-10^6 CFU/ml, after 28 days
[2] = system: P. aeruginosa; experiment: Full AET challenge test; details: original spike 10^5-10^6 CFU/ml, after 28 days
[3] = system: A. brasiliensis; experiment: Full AET challenge test; details: original spike 10^5-10^6 CFU/ml, 28 days at room temperature
[4] = system: S. haemolyticus; experiment: Microbial challenge test (Example 1); details: original spike 10^5-10^6 CFU/ml
[5] = system: S. aureus; experiment: Full AET challenge test; details: original spike 10^5-10^6 CFU/ml, after 28 days
[6] = system: M. luteus; experiment: Full AET challenge test; details: original spike 10^5-10^6 CFU/ml, after 28 days
[7] = system: C. albicans; experiment: Full AET challenge test; details: original spike 10^5-10^6 CFU/ml, after 28 days

For `CN[C@]1(c2ccccc2Cl)CCCCC1=O.Cl` [S-ketamine hydrochloride, (S)-2-(2-chlorophenyl)-2-(methylamino)cyclohexanone hydrochloride], the “Effect on the original spike (in words)” value [1] was “strong antimicrobial properties”, the “Effect on the original spike (in words)” value [2] was “strong antimicrobial properties” and the “Effect on the original spike (in words)” value [3] was “some inhibitory activity”. The “Effect on the original spike (in words)” value [4] was “strong antimicrobial properties”, the “Effect on the original spike (in words)” value [5] was “strong antimicrobial properties” and the “Effect on the original spike (in words)” value [6] was “strong antimicrobial properties”. The “Effect on the original spike (in words)” value [7] was “strong antimicrobial properties”.
